Consider three molecules from US5661167A, “Prolyl endopeptidase inhibitors” (Merrell Pharmaceuticals Inc., priority 1996, dated 1997).

Each structure is given as a SMILES string.

This experiment deals with T1, Prolyl endopeptidase (Bos taurus, UniProt Q9XTA2).
T1 construct: Prolyl endopeptidase was partially purified from bovine brain; from tissue; host or cells: bovine brain
T1 sequence (Q9XTA2 1-710): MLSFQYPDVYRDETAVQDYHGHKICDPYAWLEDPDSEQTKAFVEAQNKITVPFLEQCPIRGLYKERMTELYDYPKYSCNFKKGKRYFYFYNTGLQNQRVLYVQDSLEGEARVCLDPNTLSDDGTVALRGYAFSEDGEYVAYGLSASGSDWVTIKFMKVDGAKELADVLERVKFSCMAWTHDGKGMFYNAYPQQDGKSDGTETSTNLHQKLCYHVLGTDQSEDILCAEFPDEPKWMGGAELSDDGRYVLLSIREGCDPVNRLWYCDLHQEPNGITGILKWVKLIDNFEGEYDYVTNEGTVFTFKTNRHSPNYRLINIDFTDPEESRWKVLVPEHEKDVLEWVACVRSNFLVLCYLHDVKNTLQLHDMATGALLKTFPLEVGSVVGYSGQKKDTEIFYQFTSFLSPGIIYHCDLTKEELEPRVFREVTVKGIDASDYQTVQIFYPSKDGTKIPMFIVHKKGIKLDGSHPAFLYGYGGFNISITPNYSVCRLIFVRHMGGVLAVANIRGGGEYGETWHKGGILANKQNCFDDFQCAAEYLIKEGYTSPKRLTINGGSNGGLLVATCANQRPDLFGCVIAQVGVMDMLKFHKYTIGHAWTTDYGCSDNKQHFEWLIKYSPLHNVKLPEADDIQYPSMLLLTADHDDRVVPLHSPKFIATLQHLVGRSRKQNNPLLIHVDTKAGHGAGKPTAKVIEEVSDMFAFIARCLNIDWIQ
As to the kind of experiment: Prolyl endopeptidase enzyme inhibition assay (CBz-Gly-Pro-p-nitroanilide substrate, absorbance at 410 nm). In kind it is biochemical. The conditions noted are these: prolyl endopeptidase partially purified from bovine brain, buffer A (50 mM HEPES pH 7.4, 1 mM EDTA, 1 mM DTT), 37° C., [S]=50 μM, KM 11 μM, read-out: ENZYME INHIBITION (enzyme inhibition constant, Ki). The procedure:
Prolyl endopeptidase was partially purified from bovine brain essentially as described by Yoshimoto et al. (Biochem., 94, 1179 (1983)) except that 50 mM HEPES, pH 7.4, was used instead of Tris buffer. This enzyme preparation is suitable for routine inhibition measurements; however, the enzyme may be further purified as described below. The state of purity of the enzyme is not expected to effect the measured Ki. The pellet from the 50%-80% ammonium sulfate cut is redissolved in the homogenization buffer and desalted by passage through a Pharmacia Mono Q column (0.5×5 cm) at 1 ml/min and the column is washed with 5 ml of buffer A to buffer B (total 20 ml; buffer A=50 mM HEPES, pH 7.4, 1 mM EDTA and 1 mM DTT; buffer B=buffer A+0.5M NaCl). Enzyme activity elutes at about [NaCl]=0.25M.
The enzyme is assayed in buffer A (3.0 ml) at 37° C. containing 20 μM substrate (CBz-Gly-Pro-p-nitroanilide). The increase in absorbance at 410 nm is monitored (410 nm =8.4 mM^-1 cm^-1). Inhibitor stock solutions are made in DMSO. To characterize reversible competitive inhibitors, the initial rates in the presence of three inhibitor concentrations are measured using [S]=50 μM (KM for the substrate is 11 μM). If slow binding is observed, the final equilibrium rates are used.
The Ki for a competitive inhibitor is calculated using known formulas: vo /vi =(1+[I]/Ki, app) and Ki =Ki, app/(1+[S]/KM), where vo is the initial rate in the absence of inhibitor, vi is the initial rate in the presence of inhibitor at the concentration [I], and [S] is the substrate concentration. If "slow binding" is observed (i.e. if the approach to the binding equilibrium is slow), the final steady-state rate rather than the initial rate is taken as vi.
Enzyme inhibition constants were found using the described methods for various compounds of formula 1.
Turning to `O=C(OCc1ccccc1)N1CCCC1C(=O)N1CCCC1C(=O)C(F)(F)C(F)(F)F` (stereo not drawn) [EXAMPLE I, 2-[[2-(2,2,3,3,3-pentafluoro-1-oxopropyl)-1-pyrrolidinyl]carbonyl]-1-pyrrolidinecarboxylic acid, phenylmethyl ester], the Ki came out at 1.4 nM.
Consider `O=C(OCc1ccccc1)N1CSCC1C(=O)N1CCCC1C(=O)C(F)(F)C(F)(F)F` (stereo not drawn) [EXAMPLE II, 4-[[2-(2,2,3,3,3-pentafluoro-1-oxopropyl)-1-pyrrolidinyl]carbonyl]-3-thiazolidinecarboxylic acid, phenylmethyl ester], for which the Ki came out at 1 nM.
Turning to `CC(C)(C)OC(=O)N1CSCC1C(=O)N1CSCC1C(=O)C(F)(F)C(F)(F)F` (stereo not drawn) [EXAMPLE IV, 4-[[4-(2,2,3,3,3-pentafluoro-1-oxopropyl)-3-thiazolidinyl]carbonyl]-3-thiazolidinecarboxylic acid, 1,1-dimethylethyl ester], the Ki worked out at 1 nM.
